Read-outs that look alike come from different tables or passages of the source.

The target in the assay is T1, hM5 (Homo sapiens, UniProt P08912).
T1 construct: expressed in transfected cells
T1 sequence (P08912 1-532): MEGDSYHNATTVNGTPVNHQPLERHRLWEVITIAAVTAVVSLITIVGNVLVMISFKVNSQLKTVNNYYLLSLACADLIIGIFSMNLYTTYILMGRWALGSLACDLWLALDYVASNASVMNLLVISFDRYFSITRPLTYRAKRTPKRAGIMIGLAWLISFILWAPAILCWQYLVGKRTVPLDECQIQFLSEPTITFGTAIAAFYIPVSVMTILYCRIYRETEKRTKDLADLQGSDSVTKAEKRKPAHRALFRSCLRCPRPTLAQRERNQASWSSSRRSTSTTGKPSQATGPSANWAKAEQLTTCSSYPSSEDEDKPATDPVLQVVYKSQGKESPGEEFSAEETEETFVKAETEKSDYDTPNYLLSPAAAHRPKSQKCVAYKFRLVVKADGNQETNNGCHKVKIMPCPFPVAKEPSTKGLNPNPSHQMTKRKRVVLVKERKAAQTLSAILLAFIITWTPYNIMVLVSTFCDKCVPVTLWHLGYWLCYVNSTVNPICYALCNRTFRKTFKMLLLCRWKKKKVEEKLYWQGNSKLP
In words: Calcium mobilization concentration-response (IC50 vs EC80 acetylcholine), CHO hM5. In kind it is cell-based. The conditions noted are these: CELL LINE hM5, read-out: IC50. The procedure, abridged:
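CHO cells stably expressing hM5, dye-loaded, in HBSS/20 mM HEPES/2.5 mM probenecid, pH 7.4. Compounds were pre-incubated 140 s before an EC80 acetylcholine challenge, with calcium flux read kinetically.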
(Calcium assays in cells follow changes in intracellular calcium, usually with a dye or a luminescent sensor.)

[1] abbreviates: calcium mobilization, EC80 acetylcholine addition.

What is called IC50 is the point on the concentration scale where inhibition reaches its midpoint. Consider `Cc1c(S(=O)(=O)N2CC=C(c3cc4c(cc3Cl)N(C)CCO4)CC2)cnn1C` [Compound 376, 6-chloro-7-(1-((1,5-dimethyl-1H-pyrazol-4-yl)sulfonyl)-1,2,3,6-tetrahydropyridin-4-yl)-4-methyl-3,4-dihydro-2H-benzo[b][1,4]oxazine], for which the IC50 under setting [1] is 1450 nM.

As for `CN1CCOc2cc(C3=CCN(S(=O)(=O)c4cnn(C)c4Cl)CC3)c(Cl)cc21` [Compound 377, 6-chloro-7-(1-((5-chloro-1-methyl-1H-pyrazol-4-yl)sulfonyl)-1,2,3,6-tetrahydropyridin-4-yl)-4-methyl-3,4-dihydro-2H-benzo[b][1,4]oxazine], under setting [1], the 50% inhibitory concentration (IC50) came out at 1430 nM.

For the compound `Cc1c(S(=O)(=O)N2CCC(c3cn4ncnc4cc3OC(F)(F)F)CC2)cnn1C` [Compound 378, 6-(1-((1,5-dimethyl-1H-pyrazol-4-yl)sulfonyl)piperidin-4-yl)-7-(trifluoromethoxyl)-[1,2,4]triazolo[1,5-a]pyridine], under setting [1], the IC50 turned out to be 8150 nM.

As to `Cc1c(S(=O)(=O)N2CC=C(c3cn4ncnc4c(F)c3F)CC2)cnn1C` [Compound 379, 6-(1-((1,5-dimethyl-1H-pyrazol-4-yl)sulfonyl)-1,2,3,6-tetrahydropyridin-4-yl)-7,8-difluoro-[1,2,4]triazolo[1,5-a]pyridine], the half-maximal inhibitory concentration (IC50) under setting [1] amounted to 243 nM.

Regarding `Cc1c(C2=CCN(S(=O)(=O)c3cnn(C)c3C)CC2)cn2ncnc2c1Cl` [Compound 380, 8-chloro-6-(1-((1,5-dimethyl-1H-pyrazol-4-yl)sulfonyl)-1,2,3,6-tetrahydropyridin-4-yl)-7-methyl-[1,2,4]triazolo[1,5-a]pyridine], the half-inhibitory concentration (IC50) under setting [1] turned out to be 37 nM.

Regarding `Cc1c(S(=O)(=O)N2CC=C(c3cn4ncnc4c(F)c3Cl)CC2)cnn1C` [Compound 381, 7-chloro-6-(1-((1,5-dimethyl-1H-pyrazol-4-yl)sulfonyl)-1,2,3,6-tetrahydropyridin-4-yl)-8-fluoro-[1,2,4]triazolo[1,5-a]pyridine], under setting [1], the IC50 was determined as 13 nM.

In the case of `Cn1ncc(S(=O)(=O)N2CCC(c3cc(F)c4ncnn4c3)CC2)c1Cl` [Compound 382, 6-(1-((5-chloro-1-methyl-1H-pyrazol-4-yl)sulfonyl)piperidin-4-yl)-8-fluoro-[1,2,4]triazolo[1,5-a]pyridine], the IC50 under setting [1] turned out to be 849 nM.

With `Cc1ccncc1C1CCN(S(=O)(=O)c2cnn(C)c2Cl)CC1` [Compound 383, 3-(1-((5-chloro-1-methyl-1H-pyrazol-4-yl)sulfonyl)piperidin-4-yl)-4-methylpyridine], the 50% inhibitory concentration (IC50) under setting [1] was determined as 1640 nM.

As to `Cc1ccncc1C1CCN(S(=O)(=O)c2cnn(C)c2C)CC1` [Compound 384, 3-(1-((1,5-dimethyl-1H-pyrazol-4-yl)sulfonyl)piperidin-4-yl)-4-methylpyridine], the IC50 under setting [1] was 5760 nM.

As to `Cc1ccncc1C1CCN(S(=O)(=O)c2cnc(C)n2C)CC1` [Compound 385, 3-(1-((1,2-dimethyl-1H-imidazol-5-yl)sulfonyl)piperidin-4-yl)-4-methylpyridine], the IC50 under setting [1] was greater than 10000 nM.

Take `Cc1ccncc1C1CCN(S(=O)(=O)c2cnn3c2OCCC3)CC1` [Compound 386, 3-((4-(4-methylpyridin-3-yl)piperidin-1-yl)sulfonyl)-6,7-dihydro-5H7-pyrazolo[5,1-b][1,3]oxazine]: under setting [1], the IC50 amounted to 4620 nM.

Turning to `O=S(=O)(c1cnn2c1OCCC2)N1CCC(c2ccc3ncnn3c2)CC1` [Compound 387, 3-((4-([1,2,4]triazolo[1,5-a]pyridin-6-yl)piperidin-1-yl)sulfonyl)-6,7-dihydro-5H-pyrazolo[5,1-b][1,3]oxazine], the IC50 under setting [1] worked out at 113 nM.

Turning to `Cc1ccncc1C1CCN(S(=O)(=O)c2cnn3c2CCC3)CC1` [Compound 388, 3-((4-(4-methylpyridin-3-yl)piperidin-1-yl)sulfonyl)-5,6-dihydro-4H-pyrrolo[1,2-b]pyrazole], the IC50 under setting [1] stood at 822 nM.

Turning to `[2H]C1([2H])Oc2cc(C)c(C3CCN(S(=O)(=O)c4cnn(C)c4C)CC3)cc2OC1([2H])[2H]` [Compound 389, 1-((1,5-dimethyl-1H-pyrazol-4-yl)sulfonyl)-4-(7-methyl-2,3-dihydrobenzo[b][1,4]dioxin-6-yl-2,2,3,3-d4)piperidine], under setting [1], the half-maximal inhibitory concentration (IC50) amounted to 182 nM.

Consider `[2H]C1([2H])Oc2cc(C)c(C3CCN(S(=O)(=O)c4cnn(C)c4Cl)CC3)cc2OC1([2H])[2H]` [Compound 390, 1-((5-chloro-1-methyl-1H-pyrdzol-4-yl)sulfonyl)-4-(7-methyl-2,3-dihydrobenzo[b][1,4]dioxin-6-yl-2,2,3,3-d4)piperidine], for which the IC50 under setting [1] turned out to be 206 nM.

On to `[2H]C1([2H])Oc2cc(C)c(C3CCN(S(=O)(=O)c4cnc(C)n4C)CC3)cc2OC1([2H])[2H]` [Compound 391, 1-((1,2-dimethyl-1H-imidazol-5-yl)sulfonyl)-4-(7-methyl-2,3-dihydrobenzo[b][1,4]dioxin-6-yl-2,2,3,3-d4)piperidine], for which, under setting [1], the IC50 turned out to be 636 nM.

Turning to `[2H]C1([2H])Oc2cc(C)c(C3CCN(S(=O)(=O)c4cnc(C)s4)CC3)cc2OC1([2H])[2H]` [Compound 392, 2-methyl-5-((4-(7-methyl-2,3-dihydrobenzo[b][1,4]dioxin-6-yl-2,2,3,3-d4)piperidin-1-yl)sulfonyl)thiazole], under setting [1], the half-maximal inhibitory concentration (IC50) was greater than 10000 nM.

`[2H]C1([2H])Oc2cc(C)c(C3CCN(S(=O)(=O)c4cnn5c4OCCC5)CC3)cc2OC1([2H])[2H]` [Compound 393, 3-((4-(7-methyl-2,3-dihydrobenzo[b][1,4]dioxin-6-yl-2,2,3,3-d4)piperidin-1-yl)sulfonyl)-6,7-dihydro-5H-pyrazolo[5,1-b][1,3]oxazine]: the half-maximal inhibitory concentration (IC50) under setting [1] stood at 86 nM.

As for `Cc1cc(C(F)(F)F)ncc1C1CCN(S(=O)(=O)c2cnn(C)c2C)CC1` [Compound 394, 5-(1-((1,5-dimethyl-1H-pyrazol-4-yl)sulfonyl)piperidin-4-yl)-4-methyl-2-(trifluoromethyl)pyridine], the half-maximal inhibitory concentration (IC50) under setting [1] was 2510 nM.

As to `Cc1cc(C(F)(F)F)ncc1C1CCN(S(=O)(=O)c2cnn(C)c2Cl)CC1` [Compound 395, 5-(1-((5-chloro-1-methyl-1H-pyrazol-4-yl)sulfonyl)piperidin-4-yl)-4-methyl-2-(triflu0romethyl)pyridine], under setting [1], the IC50 was found to be 1290 nM.

As for `Cc1cc(C(F)(F)F)ncc1C1CCN(S(=O)(=O)c2cnc(C)n2C)CC1` [Compound 396, 5(1-((1,2-dimethyl-1H-imidazol-5-yl)sulfonyl)piperidin-4-yl)-4-methyl-2-(trifluoromethyl)pyridine], the concentration for half-maximal inhibition (IC50) (vs EC80 acetylcholine) was greater than 10000 nM.

In the case of `Cc1ncc(S(=O)(=O)N2CCC(c3cnc(C(F)(F)F)cc3C)CC2)s1` [Compound 397, 2-methyl-5-((4-(4-methyl-6-(trifluoromethyl)pyridin-3-yl)piperidin-1-yl)sulfonyl)thiazole], the IC50 (vs EC80 acetylcholine) was greater than 10000 nM.

Consider `Cc1cc(C(F)(F)F)ncc1C1CCN(S(=O)(=O)c2cnn3c2OCCC3)CC1` [Compound 398, 3-((4-(4-methyl-6-(trifluoromethyl)pyridin-3-yl)piperidin-1-yl)sulfonyl)-6,7-dihydro-5H-pyrazolo[5,1-b][1,3]oxazine], for which, for the setting “vs EC80 acetylcholine”, the 50% inhibitory concentration (IC50) came out at 6310 nM.

Take `Cc1cc(C(F)(F)F)ncc1C1CCN(S(=O)(=O)c2ccc3c(c2)CCO3)CC1` [Compound 399, 5-(1-((2,3-dihydrobenzofuran-5-yl)sulfonyl)piperidin-4-yl)-4-methyl-2-(trifluoromethyl)pyridine]: the IC50 (vs EC80 acetylcholine) came to 3840 nM.

As to `Cc1cc2ncnn2cc1C1CCN(S(=O)(=O)c2cnn(C)c2C#N)CC1` [Compound 400, 1-Methyl-4-((4-(7-methyl-[1,2,4]triazolo[1,5-a]pyridin-6-yl)piperidin-1-yl)sulfonyl)-1H-pyrazole-5-carbonitrile], for the setting “vs EC80 acetylcholine”, the half-inhibitory concentration (IC50) was determined as 18 nM.

Take `Cc1cc2ncnn2cc1C1CCN(S(=O)(=O)c2cnn(C)c2CC#N)CC1` [Compound 401, 2-(1-methyl-4-((4-(7-methyl-[1,2,4]triazolo[1,5-a]pyridin-6-yl)piperidin-1-yl)sulfonyl)-1H-pyrazol-5-yl)acetonitrile]: the half-maximal inhibitory concentration (IC50) (vs EC80 acetylcholine) was 72 nM.

In the case of `Cn1ncc(S(=O)(=O)N2CCC(c3cn4ncnc4cc3F)CC2)c1C#N` [Compound 402, 4-((4-(7-fluoro-[1,2,4]triazolo[1,5-a]pyridin-6-yl)piperidin-1-yl)sulfonyl)-1-methyl-1H-pyrazole-5-carbonitrile], the concentration for half-maximal inhibition (IC50) (vs EC80 acetylcholine) was 85 nM.

`Cn1ncc(S(=O)(=O)N2CCC(c3cn4ncnc4cc3F)CC2)c1CC#N` [Compound 403, 2-(4-((4-(7-fluoro-[1,2,4]triazolo[1,5-a]pyridin-6-yl)piperidin-1-yl)sulfonyl)-1-methyl-1H-pyrazol-5-yl)acetonitrile]: for the setting “vs EC80 acetylcholine”, the IC50 stood at 5060 nM.

In the case of `Cc1cc(F)c(F)cc1C1=CCN(S(=O)(=O)c2cnn(C)c2C)CC1` [Compound 404, 4-(4,5-difluoro-2-methylphenyl)-1-((1,5-dimethyl-1H-pyrazol-4-yl)sulfonyl)-1,2,3,6-tetrahydropyridine], where the note is “vs EC80 acetylcholine”, the IC50 was 1540 nM.

With `Cn1ncc(S(=O)(=O)N2CCC(c3cn4ncnc4cc3Cl)CC2)c1C#N` [Compound 405, 4-((4-(7-chloro-[1,2,4]triazolo[1,5-a]pyridin-6-yl)piperidin-1-yl)sulfonyl)-1-methyl-1H-pyrazole-5-carbonitrile], under “vs EC80 acetylcholine”, the IC50 was 11 nM.

The record behind these values is patent publication US20230183237A1, “COMPETITIVE AND NONCOMPETITIVE INHIBITORS OF THE MUSCARINIC ACETYLCHOLINE RECEPTOR M5” (Vanderbilt University, priority 2020, published 2023).
